How the values were obtained:
Format in all cases: in vivo
[1] = test system: Beet Armyworm (BAW) (Spodoptera exigua); assay: Bioassay on beet armyworm (BAW), 128-well diet tray assay; conditions: Beet armyworm, 50 μg/cm^2; for pest or weed control at 50 µg/cm2, 50 µg/cm2: Spodoptera exigua, read-out: % Mortality BAW 50 μg/cm^2
Method in brief: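 Second-instar Spodoptera exigua larvae, one to five per well, on artificial diet treated with 50 μg/cm^2 compound in 90:10 acetone-water and dried, eight wells per compound. Held at 25 °C, 14:10 light-dark for five to seven days; percent mortality averaged over wells.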

[2] = test system: Green Peach Aphid (GPA) (Myzus persicae); assay: Bioassay on green peach aphid (GPA), foliar spray on cabbage seedlings; conditions: 72 h, read-out: % Mortality GPA 200 ppm
Method: Bioassays on Green Peach Aphid (“GPA”) (Myzus persicae)
Certain molecules disclosed in this document were tested against GPA using procedures described in the following example. In the reporting of the results, the “GPA Rating Table” was used (See Table Section).
Cabbage seedlings grown in 3-inch pots, with 2-3 small (3-5 cm) true leaves, were used as test substrate. The seedlings were infested with 20-50 GPA (wingless adult and nymph stages) one day prior to chemical application. Four pots with individual seedlings were used for each treatment. Test compounds (2 mg) were dissolved in 2 mL of acetone/methanol (1:1) solvent, forming stock solutions of 1000 ppm test compound. The stock solutions were diluted 5× with 0.025% Tween 20 in H2O to obtain the solution at 200 ppm test compound. A hand-held aspirator-type sprayer was used for spraying a solution to both sides of […] leaves until runoff. Reference plants (solvent check) were sprayed with the diluent only containing 20% by volume of acetone/methanol (1:1) solvent. Treated plants were held in a holding room for three days at approximately 25° C. and ambient relative humidity (RH) prior to grading. Evaluation was conducted by counting the number of live aphids per plant under a microscope. Percent Control was measured by using Abbott's correction formula (W. S. Abbott, “A Method of Computing the Effectiveness of an Insecticide” J. Econ. Entomol. 18 (1925), pp. 265-267) as follows. Corrected%Control=100*(X−Y)/X • where • X=No. of live aphids on solvent check plants and • Y=No. of live aphids on treated plants
The results are indicated in the table entitled “Table 5: Biological Results” (See Table Section).

[3] = test system: Corn Earworm (CEW) (Helicoverpa zea); assay: Bioassay on corn earworm (CEW), 128-well diet tray assay; conditions: Corn earworm, 50 μg/cm^2; for pest or weed control at 50 µg/cm2, 50 µg/cm2: Helicoverpa zea, read-out: % Mortality CEW 50 μg/cm^2
Method in brief: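 Second-instar Helicoverpa zea larvae (one to five per well) placed on artificial diet treated with 50 μg/cm^2 compound in 90:10 acetone-water, dried, eight wells per compound. Held at 25 °C, 14:10 light-dark, five to seven days; percent mortality averaged over wells.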

Structure (SMILES)	pest or weed control at 50 µg/cm2, 50 µg/cm2 [1]	pest or weed control at 200 ppm [2]	pest or weed control at 50 µg/cm2, 50 µg/cm2 [3]	% Mortality BAW 50 μg/cm^2 [1]	% Mortality CEW 50 μg/cm^2 [3]
Cc1cccc(C)c1/N=C(/N/N=C/c1ccc(-c2ncn(-c3ccc(OC(F)(F)F)cc3)n2)cc1)SCC(=O)NCC(NC(=O)OC(C)(C)C)C(=O)O (stereo not drawn) [Compound 59C]	50 to 100%	0 to 80%	50 to 100%		
Cc1cccc(C)c1/N=C(/N/N=C/c1ccc(-c2ncn(-c3ccc(OC(F)(F)F)cc3)n2)cc1)SCC(=O)NC[C@@H]1CCCNC1 [Compound 62C, (1Z,2E)-2-oxo-2-(((R)-piperidin-3-ylmethyl)amino)ethyl N-(2,6-dimethylphenyl)-2-(4-(1-(4-(trifluoromethoxy)phenyl)-1H-1,2,4-triazol-3-yl)benzylidene)hydrazinecarbimidothioate trifluoroacetic acid]	50 to 100%	0 to 80%	50 to 100%		
COc1cc(C)c(/N=C(/N/N=C/c2ccc(-c3ncn(-c4ccc(OC(F)(F)F)cc4)n3)cc2)SCC(=O)N2CCNCC2)c(C)c1 [Compound 65C]	50 to 100%	0 to 80%	50 to 100%		
Cc1cccc(C)c1/N=C(/N/N=C/c1ccc(-c2ncn(-c3ccc(OC(F)(F)F)cc3)n2)cc1)SCC(=O)NCCCN [Compound 66C]	50 to 100%	0 to 80%	50 to 100%		
COc1cc(C)c(/N=C(/N/N=C/c2ccc(-c3ncn(-c4ccc(OC(F)(F)F)cc4)n3)cc2)SCC(=O)O)c(C)c1.[Na+] [Compound 68C, 2-(((Z)-((4-methoxy-2,6-dimethylphenyl)imino)((E)-2-(4-(1-(4-(trifluoromethoxy)phenyl)-1H-1,2,4-triazol-3-yl)benzylidene)hydrazinyl)methyl)-thio)acetic acid sodium salt]		0 to 80%		A (50-100)	A (50-100)
Cc1cccc(C)c1N1C(=O)CS/C1=N\N=C\c1ccc(-c2ncn(-c3ccc(OC(F)(F)F)cc3)n2)cc1 [Compound 72C]		0 to 80%		A (50-100)	A (50-100)
CC(C)c1ccccc1N1C(=O)CS/C1=N\N=C\c1ccc(-c2ncn(-c3ccc(OC(F)(F)F)cc3)n2)cc1 [Compound 73C]	50 to 100%	0 to 80%	50 to 100%		
Cc1cccc(C)c1-n1c(-c2nccs2)cs/c1=N\N=C\c1ccc(-c2ncn(-c3ccc(OC(F)(F)F)cc3)n2)cc1 [Compound 75C]	50 to 100%	0 to 80%	50 to 100%		
Cc1cccc(C)c1-n1c(-c2cc(-c3ccc(Cl)cc3)no2)cs/c1=N\N=C\c1ccc(-c2ncn(-c3ccc(OC(F)(F)F)cc3)n2)cc1 [Compound 76C]	50 to 100%	0 to 80%	50 to 100%		
Cc1cccc(C)c1-n1c(-c2ccc(C(=O)O)cc2)cs/c1=N\N=C\c1ccc(-c2ncn(-c3ccc(OC(F)(F)F)cc3)n2)cc1 [Compound 77C]	50 to 100%	0 to 80%	50 to 100%		
Cc1cccc(C)c1-n1c(-c2ccc(OC(F)(F)F)cc2)cs/c1=N\N=C\c1ccc(-c2ncn(-c3ccc(OC(F)(F)F)cc3)n2)cc1 [Compound 78C]	50 to 100%	0 to 80%	50 to 100%		
Cc1cccc(C)c1-n1c(-c2ccc(C(F)(F)F)cc2)cs/c1=N\N=C\c1ccc(-c2ncn(-c3ccc(OC(F)(F)F)cc3)n2)cc1 [Compound 79C]	50 to 100%	0 to 80%	50 to 100%		
CC1S/C(=N\N=C\c2ccc(-c3ncn(-c4ccc(OC(F)(F)F)cc4)n3)cc2)N(c2ccccc2C(C)C)C1=O (stereo not drawn) [Compound 88C]	50 to 100%	0 to 80%	50 to 100%		
COc1ccccc1N1C(=O)CS/C1=N\N=C\c1ccc(-c2ncn(-c3ccc(OC(F)(F)F)cc3)n2)cc1 [Compound 92C]	50 to 100%	0 to 80%	50 to 100%		
O=C1CS/C(=N\N=C\c2ccc(-c3ncn(-c4ccc(OC(F)(F)F)cc4)n3)cc2)N1c1c(F)cccc1Cl [Compound 95C]	50 to 100%	0 to 80%	50 to 100%		
